Measured values from US20240041050A1, “CELL PENETRATING PEPTIDE MEDIATED RNA TRANSDUCTION WITHIN INSECT CELLS” (PIONEER HI-BRED INTERNATIONAL, INC., priority 2020, published 2024).
Ends that are not written are not given here.

Assays:
[1] = test system: DU182A cells; assay: CPP-mediated delivery of mCherry mRNA cargo into insect cells; assay type: cell-based, Diabrotica undecimpunctata; settings: complex of 75 μM unlabeled CPP and 10 μg mCherry mRNA, overnight
Text: (§1) Sample preparation and analysis methods were based on those previously reported (Jafari et al. (201 4) “Serum stability and physicochemical characterization of a novel amphipathic peptide C6M 1 for siRNA delivery”, PLoS One, 9(5), e97797; and Gillet et al. (2017) “Investigating Engineered Ribonucleoprotein Particles to Improve Oral RNAi Delivery in Crop Insect Pests”, Frontiers in Physiology, 8(256), doi: 10.3389/fphys.2017.00256). Reagents are described in Examples 1 and 2. Nanocomplex samples were prepared in one of several ways, depending on type of CPP, RNA, or assay. […] Reaction volumes added to cells were 6.38 μL CPP and 6.38 μL mRNA. Final optimal CPP concentration was assessed by amount of fluorescent signal apparent within cells. For insect cell-based assays with CPP-YFP·Cy3-dsRNA or CPP·dsRNA, first a complex formation solution was prepared in molecular biology-grade water containing 90 mg·mL^−1 maltose, 9 mg·mL^−1 mannitol, 392. 16 mM CaCI2, pH 7.0, and vacuum-filtered using Corning™ Disposable Vacuum Filter and Storage System containing a cellulose nitrate filter. Then, increasing amounts of CPP-YFP were added to Cy3-dsRNA, from a molar ratio (CPP-YFP:Cy3-dsRNA) of 1:4 through 8:1 and incubated protected from light at 25° C. for 90 minutes prior to assessment via gel shift and DLS. Reaction volumes added per cell well were comprised of 17 μL reaction solution, 1 μL CPP, 1 μL dsRNA, and 1 μL molecular biology grade water; reaction sizes for larger total volumes were increased in increments of 20 μL and component ratio was held constant to maintain an ionic strength of […]. Final optimal molar ratio selected for cell experiments were determined by increase of the apparent size of the Cy3-dsRNA band on a native agarose gel (FIG. 2A and FIG. 2B), and/or appearance and increase in size of the complex peak detected by a Zetasizer Ultra (Malvern Panalytical, Malvern, United Kingdom) DLS instrument (FIG. 2C). […] Final optimal BAPC1 concentration was assessed by amount of fluorescent signal apparent within cells. […]

[2] = test system: Sf9 cells; assay: as above; assay type: cell-based, Spodoptera frugiperda; settings: complex of 75 μM unlabeled CPP and 10 μg mCherry mRNA, overnight
Text: as §1

[3] = test system: western corn rootworm (WCR) larvae; assay: Oral toxicity screening of CPPs in artificial diet; assay type: in vivo; settings: first instar WCR larvae; for Affected (%): mortality and stunting
Procedure: Briefly, CPPs were incorporated into standard WCR artificial diet in 96-well microtiter plate format. A 25 μL aliquot of dosing solution was combined with 75 μL molten low-melt WCR diet and shaken on an orbital shaker to mix. Once diet solidified, preconditioned first instar WCR (freshly-hatched insects placed on neutral diet for 24 hours prior to transfer to test diet) were added to the diet plates at a rate of 1 insect·well^−1. Plates were placed inside an incubator (Percival Scientific, Inc., Perry, IA) set to 27° C., 65% RH, and a 24-hour dark cycle. The assay was scored for mortality and stunting affects after 7 and 12 days, without diet refresh, on a 0-3 scale, where 3=mortality, 2=severe stunting, 1=stunting, 0=no affect when compared with untreated larvae. The assay was repeated three times and end-results were tabulated using all three replicates and converted to percentages (Table 5).

[4] = test system: DvWL2 cells; assay: CPP-mediated delivery of mCherry mRNA cargo into insect cells; assay type: cell-based, Diabrotica virgifera virgifera; settings: complex of 75 μM unlabeled CPP and 10 μg mCherry mRNA, overnight
Text: as §1

In the case of `CSCC[C@H](NC(=O)[C@@H](NC(=O)[C@H](CO)NC(=O)CNC(=O)[C@H](C)NC(=O)[C@H](C)NC(=O)CNC(=O)[C@H](CC(C)C)NC(=O)[C@H](Cc1ccccc1)NC(=O)CNC(=O)[C@H](CC(C)C)NC(=O)[C@H](Cc1ccccc1)NC(=O)[C@H](CC(C)C)NC(=O)[C@H](C)NC(=O)CN)[C@@H](C)O)C(=O)NCC(=O)N[C@@H](C)C(=O)N[C@@H](Cc1c[nH]c2ccccc12)C(=O)N[C@@H](CO)C(=O)N[C@@H](CCC(N)=O)C(=O)N1CCC[C@H]1C(=O)N[C@@H](CCCCN)C(=O)N[C@@H](CO)C(=O)N[C@@H](CCCCN)C(=O)N[C@@H](CCCNC(=N)N)C(=O)N[C@@H](CCCCN)C(=O)N[C@H](C(=O)O)C(C)C` [MPG], the “fluorescent protein translated from delivered mCherry mRNA (fluorescent signal inside cells)” value (“fluorescent protein translated” below) [1] is reported as “Translation of mRNA into a functional fluorescent protein occurred”, the “fluorescent protein translated” value [2] is reported as “Translation of mRNA into a functional fluorescent protein occurred” and the “Affected (%)” value ([3]; 0.195 ppm in artificial diet) is reported as 0%. The “Affected (%)” value ([3]; 0.391 ppm in artificial diet) was 0%, the “Affected (%)” value ([3]; 0.781 ppm in artificial diet) was 0% and the “Affected (%)” value ([3]; 1.56 ppm in artificial diet) was 0%. The “Affected (%)” value ([3]; 3.13 ppm in artificial diet) was 0%, the “Affected (%)” value ([3]; 6.25 ppm in artificial diet) was 0% and the “Affected (%)” value ([3]; 12.5 ppm in artificial diet) was 0%. For the same compound, the “Affected (%)” value ([3]; 25.0 ppm in artificial diet) was 0%, the “Affected (%)” value ([3]; 50.0 ppm in artificial diet) was 0% and the “Affected (%)” value ([3]; 100 ppm in artificial diet) was 0%. For the same compound, the “Affected (%)” value ([3]; 200 ppm in artificial diet) was 0% and the “fluorescent protein translated” value [4] was “Translation of mRNA into a functional fluorescent protein occurred”.

“VRLPPPVRLPPPLVRPPPL [VRLPPPVRLPPPLVRPPPL]” was tested, and the “Mortality (%)” value ([3]; 0.195 ppm in artificial diet) was 0%, the “Affected (%)” value ([3]; 0.195 ppm in artificial diet) was 0% and the “Mortality (%)” value ([3]; 0.391 ppm in artificial diet) was 0%. The “Affected (%)” value ([3]; 0.391 ppm in artificial diet) was 0%, the “Mortality (%)” value ([3]; 0.781 ppm in artificial diet) was 0% and the “Affected (%)” value ([3]; 0.781 ppm in artificial diet) was 0%. For the same compound, the “Mortality (%)” value ([3]; 1.56 ppm in artificial diet) was 0%, the “Affected (%)” value ([3]; 1.56 ppm in artificial diet) was 0% and the “Mortality (%)” value ([3]; 3.13 ppm in artificial diet) was 0%. The “Affected (%)” value ([3]; 3.13 ppm in artificial diet) was 0%, the “Mortality (%)” value ([3]; 6.25 ppm in artificial diet) was 0% and the “Affected (%)” value ([3]; 6.25 ppm in artificial diet) was 0%. The “Mortality (%)” value ([3]; 12.5 ppm in artificial diet) was 0%, the “Affected (%)” value ([3]; 12.5 ppm in artificial diet) was 0% and the “Mortality (%)” value ([3]; 25.0 ppm in artificial diet) was 0%. For the same compound, the “Affected (%)” value ([3]; 25.0 ppm in artificial diet) was 0%, the “Mortality (%)” value ([3]; 50.0 ppm in artificial diet) was 0% and the “Affected (%)” value ([3]; 50.0 ppm in artificial diet) was 0%. The “Mortality (%)” value ([3]; 100 ppm in artificial diet) was 0%, the “Affected (%)” value ([3]; 100 ppm in artificial diet) was 0% and the “Mortality (%)” value ([3]; 200 ppm in artificial diet) was 0%. For the same compound, the “Affected (%)” value ([3]; 200 ppm in artificial diet) was 0%.

For “KQINNWFINQRKRHWK [Knotted-1, KQINNWFINQRKRHWK]”, the “fluorescent protein translated” value [1] was “Translation of mRNA into a functional fluorescent protein occurred”, the “fluorescent protein translated” value [2] was “Translation of mRNA into a functional fluorescent protein occurred” and the “Mortality (%)” value ([3]; 0.195 ppm in artificial diet) was 0%. For the same compound, the “Affected (%)” value ([3]; 0.195 ppm in artificial diet) was 0%, the “Mortality (%)” value ([3]; 0.391 ppm in artificial diet) was 0% and the “Affected (%)” value ([3]; 0.391 ppm in artificial diet) was 0%. For the same compound, the “Mortality (%)” value ([3]; 0.781 ppm in artificial diet) was 0%, the “Affected (%)” value ([3]; 0.781 ppm in artificial diet) was 0% and the “Mortality (%)” value ([3]; 1.56 ppm in artificial diet) was 0%. For the same compound, the “Affected (%)” value ([3]; 1.56 ppm in artificial diet) was 0%, the “Mortality (%)” value ([3]; 3.13 ppm in artificial diet) was 0% and the “Affected (%)” value ([3]; 3.13 ppm in artificial diet) was 0%. For the same compound, the “Mortality (%)” value ([3]; 6.25 ppm in artificial diet) was 0%, the “Affected (%)” value ([3]; 6.25 ppm in artificial diet) was 0% and the “Mortality (%)” value ([3]; 12.5 ppm in artificial diet) was 0%. For the same compound, the “Affected (%)” value ([3]; 12.5 ppm in artificial diet) was 0%, the “Mortality (%)” value ([3]; 25.0 ppm in artificial diet) was 0% and the “Affected (%)” value ([3]; 25.0 ppm in artificial diet) was 0%. For the same compound, the “Mortality (%)” value ([3]; 50.0 ppm in artificial diet) was 0%, the “Affected (%)” value ([3]; 50.0 ppm in artificial diet) was 0% and the “Mortality (%)” value ([3]; 100 ppm in artificial diet) was 0%. The “Affected (%)” value ([3]; 100 ppm in artificial diet) was 0%, the “Mortality (%)” value ([3]; 200 ppm in artificial diet) was 0% and the “Affected (%)” value ([3]; 200 ppm in artificial diet) was 0%. For the same compound, the “fluorescent protein translated” value [4] was “Translation of mRNA into a functional fluorescent protein occurred”.
